Patent publication US20150139987A1, “TREATMENT OF HOMOZYGOUS FAMILIAL HYPERCHOLESTEROLEMIA” (CymaBay Therapeutics, Inc., priority 2013, published 2015)
Where two headings read alike, the source gives them in different places.

Experiments:
subjects with HoFH = test: Example 1: study with MBX-8025 in HoFH; assay type: in vivo, human; conditions: MBX-8025 L-lysine dihydrate salt 50, 100, or 200 mg/day
Procedure: Subjects are permitted their usual other medications, including lipid-lowering treatments. […] MRIs of the subjects' livers are taken every 4 weeks during the study and 4 weeks after study completion, to determine hepatic fat. At each visit, after a 12-hour fast, blood is drawn and urine collected; and a standard metabolic panel, complete blood count, and standard urinalysis are performed. Blood is analyzed for TC, HDL-C, LDL-C, VLDL-C, TG, and apoB. The subjects also maintain health diaries, which are reviewed at each visit.

[1] = target: T1, peroxisome proliferator-activated receptor-δ (PPARδ) (Homo sapiens, UniProt Q03181); test: PPARδ agonist potency; assay type: biochemical
T1 sequence (Q03181 1-441): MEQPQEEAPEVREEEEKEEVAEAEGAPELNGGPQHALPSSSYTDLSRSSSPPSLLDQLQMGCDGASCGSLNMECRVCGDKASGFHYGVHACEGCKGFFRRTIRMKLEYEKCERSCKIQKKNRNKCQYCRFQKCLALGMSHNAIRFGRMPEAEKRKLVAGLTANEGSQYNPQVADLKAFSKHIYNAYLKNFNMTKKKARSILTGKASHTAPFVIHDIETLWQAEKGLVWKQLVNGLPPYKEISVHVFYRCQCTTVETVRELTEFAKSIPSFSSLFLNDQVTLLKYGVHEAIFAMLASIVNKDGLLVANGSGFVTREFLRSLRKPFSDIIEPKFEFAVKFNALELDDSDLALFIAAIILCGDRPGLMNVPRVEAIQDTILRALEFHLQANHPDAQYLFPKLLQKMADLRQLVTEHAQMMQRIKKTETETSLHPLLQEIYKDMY
From the text: (§1) PPARδ activation stimulates fatty acid oxidation and utilization, improves plasma lipid and lipoprotein metabolism, glucose utilization, and mitochondrial respiration, and preserves stem cell homeostasis.

LDL particle size = conditions: pattern B <25.75 nm, I 25.75-26.34 nm, A >26.34 nm; US 2010-0152295; cited from earlier work
PPARα = target: T2, PPARα (Homo sapiens, UniProt Q07869); test: Specificity for PPARδ compared with PPARα; assay type: biochemical
T2 sequence (Q07869 1-468): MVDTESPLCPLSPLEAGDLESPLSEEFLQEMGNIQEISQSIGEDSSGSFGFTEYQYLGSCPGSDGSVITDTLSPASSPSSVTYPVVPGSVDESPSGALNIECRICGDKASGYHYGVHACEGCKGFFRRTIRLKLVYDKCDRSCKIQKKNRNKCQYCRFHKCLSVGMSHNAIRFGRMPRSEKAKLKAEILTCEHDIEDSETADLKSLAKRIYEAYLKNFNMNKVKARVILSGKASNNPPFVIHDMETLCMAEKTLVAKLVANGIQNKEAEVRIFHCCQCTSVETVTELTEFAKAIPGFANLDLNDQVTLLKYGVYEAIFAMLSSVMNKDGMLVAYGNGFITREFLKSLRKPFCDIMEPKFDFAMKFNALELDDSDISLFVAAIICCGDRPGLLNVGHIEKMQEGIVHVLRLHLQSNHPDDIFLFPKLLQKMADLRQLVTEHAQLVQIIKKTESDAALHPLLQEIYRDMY
From the text: as §1

[2] = test system: subjects with mixed dyslipidemia; conditions: cited from earlier work; for reduction of LDL-C: 100 mg/day; for reduction of alkaline phosphatase: control group 4%
[3] = test system: knockout mice lacking LDLR; test: Lipid lowering in knockout mice lacking LDLR; assay type: in vivo
patients with HoFH [4] = conditions: cited from earlier work
[5] = test system: healthy volunteers with hypercholesterolemia; conditions: cited from earlier work
patients with HeFH [6] = conditions: cited from earlier work
[7] = test system: patients with hypercholesterolemia; conditions: week 12; sc 50, 100, 150 mg twice monthly or 200, 300 mg once monthly; cited from earlier work
[8] = test system: patients with HoFH, HeFH, severe hyperlipidemia, high-risk coronary heart disease; conditions: human, in vivo; cited from earlier work
patients with HoFH [9] = conditions: added to maximally tolerated lipid lowering medications in HoFH patients; cited from earlier work
apoB mRNA = conditions: HepG2, Hep3B, human and cynomolgus monkey primary hepatocytes; cited from earlier work
[10] = in vivo, cited from earlier work
[11] = test system: hypercholesterolemic subjects; conditions: cited from earlier work
patients with HeFH [12] = conditions: cited from earlier work; remark: listed apart in the source
[13] = alone and in combination with atorvastatin, 8 weeks

CCO[C@H](COc1ccc(C(F)(F)F)cc1)CSc1ccc(OCC(=O)O)c(C)c1 [MBX-8025, (R)-2-(4-((2-ethoxy-3-(4-(trifluoromethyl)phenoxy)propyl)thio)-2-methylphenoxy)acetic acid]
effect on TC, LDL-C, VLDL-C, TG, apoB and HDL-C (subjects with HoFH): dose-dependent lowering of TC, LDL-C, VLDL-C, TG and apoB, and raising of HDL-C | EC50 [1]: 2 nM | LDL particle size pattern conversion (LDL particle size): converts LDL particle size pattern I to pattern A; and from pattern B to pattern I or A | specificity for PPARδ compared with PPARα (PPARα): > 600 fold | reduction of LDL-C ([2]; tertile with the highest starting LDL-C levels (187-205 mg/dL)): 35% | reduction of LDL-C ([2]; total population treated): 22% | decrease of LDL-S/VS ([2]; 8 weeks): 40-48% | increase of LDL-L ([2]; 8 weeks): 34-44% | reduction of apoB 100 compared to placebo ([2]; MBX-8025 50 or 100 mg alone and in combination with atorvastatin 20 mg, 8 weeks): 20-38% | raising of HDL-C [2, 13]: 1-12% | reduction of LDL compared to placebo [2, 13]: 18-43% | reduction of free fatty acids compared to placebo [2, 13]: 16-28% | reduction of high-sensitivity C-reactive protein compared to placebo [2, 13]: 43-72% | reduction of non-HDL-C compared to placebo [2, 13]: 18-41% | reduction of triglycerides compared to placebo [2, 13]: 26-30% | reduction of γ-glutamyl transpeptidase ([2]; control group 3%): 24-28% | reduction of alkaline phosphatase [2]: 32-43% | insulin sensitivity (HOMA-IR, fasting plasma glucose, insulin) ([2]; in vivo): increases insulin sensitivity | reduction of the percentage of subjects meeting the criteria for metabolic syndrome ([2]; in vivo): > 2 fold | safety and tolerability ([2]; in vivo): safe and generally well-tolerated | serum aminotransferases ([2]; in vivo): reducing serum aminotransferases | waist circumference and lean body mass ([2]; in vivo): trends towards a decrease in waist circumference and increase in lean body mass | LDLR dependence of LDL-C lowering [3]: do not require an effective LDLR to lower LDL-C and improve other lipid parameters

CC(C)c1c(C(=O)Nc2ccccc2)c(-c2ccccc2)c(-c2ccc(F)cc2)n1CC[C@@H](O)C[C@@H](O)CC(=O)O [atorvastatin, reference compound]
decrease of LDL-L ([2]; 8 weeks): 30% | decrease of LDL-S/VS ([2]; 8 weeks): 25% | increase of γ-glutamyl transpeptidase ([2]; 8 weeks): 2% | reduction of alkaline phosphatase [2]: 6%

O=C(NC1CCN(CCCCC2(C(=O)NCC(F)(F)F)c3ccccc3-c3ccccc32)CC1)c1ccccc1-c1ccc(C(F)(F)F)cc1 [lomitapide, N-(2,2,2-trifluoroethyl)-9-(4-(4-(4′-(trifluoromethyl)-[1,1′-biphenyl]-2-ylcarboxamido)piperidin-1-yl)butyl)-9H-fluorene-9-carboxamide]
patients reporting gastrointestinal adverse reactions (patients with HoFH [4]; 27 of 29 patients, Phase 3 trial): 93% | patients reporting vomiting, dyspepsia and abdominal pain (each) (patients with HoFH [4]; AEs reported by 8 or more of 29 patients): ≥ 28% | patients reporting diarrhea (patients with HoFH [4]; Phase 3 trial, 29 patients): 79% | patients reporting nausea (patients with HoFH [4]; Phase 3 trial, 29 patients): 65% | patients who discontinued the trial for AEs (patients with HoFH [4]; of the 29 patients): Five | reduction of LDL-C [5]: up to 65%

Alirocumab: anti-PCSK9 antibody
reduction in LDL-C (patients with HeFH [6]; 150 mg/2 weeks sc): 68% | reduction in LDL-C (patients with HeFH [6]; 150 mg/4 weeks sc): 29% | tolerability (patients with HeFH [6]; in vivo): well tolerated

Bococizumab: anti-PCSK9 antibody
effect on LDL-C [7]: significant reductions in LDL-C at week 12

mipomersen
alanine aminotransferase ≧3× upper limit of normal [8]: 10% | aspartate aminotransferase ≧3× upper limit of normal [8]: 16% | flu-like symptoms (such as fatigue, fever, and chills) [8]: 30% | injection site reactions [8]: 84% | patients who discontinued for an adverse event or serious adverse event [8]: 18% | patients who discontinued for other reasons [8]: 4% | patients who discontinued for patient withdrawal [8]: 6% | reduction of LDL-C (patients with HoFH [9]): 25% | effect on apoB mRNA, protein, and secreted protein (apoB mRNA): selectively reduced apoB mRNA, protein, and secreted protein in a concentration- and time-dependent manner | absorption time to maximum concentration ([10]; sc): 3 to 4 h | distribution half-life ([10]; sc): 2 to 5 h | elimination half-life ([10]; sc): 1-2 months | time to steady-state plasma trough [10]: ≤ 6 months

B1: evolocumab: anti-PCSK9 antibody (antibody, chains of the INN, looked up, V domains shown)
VH: EVQLVQSGAEVKKPGASVKVSCKASGYTLTSYGISWVRQAPGQGLEWMGWVSFYNGNTNYAQKLQGRGTMTTDPSTSTAYMELRSLRSDDTAVYYCARGYGMDVWGQGTTVTVSS
VL: ESALTQPASVSGSPGQSITISCTGTSSDVGGYNSVSWYQQHPGKAPKLMIYEVSNRPSGVSNRFSGSKSGNTASLTISGLQAEDEADYYCNSYTSTSMVFGGGTKLTVL
reduction of LDL-C levels [11]: more than 50% | effect on LDL-C relative to placebo (patients with HeFH [12]; 140 mg every 2 weeks or 420 mg every month sc): Significant reductions in LDL-C | muscle-related AEs (patients with HeFH [12]; in vivo): 5% | nasopharyngitis (patients with HeFH [12]; in vivo): 9% | tolerability (patients with HeFH [12]; in vivo): well tolerated
